The nature of test [1]: FKBP/FRB model system, FP labelling kinetics with or without rapamycin. Format: biochemical. Conditions: in combination with a FKPB/FRB sensor system; versus PEP1. Here is the method: FIG. 13 Model system to test split HaloTag™ performance: Left: Scheme explaining the FKBP/FRB based model system. cpHaloΔ and the 9mer peptide are fused to FKBP and FRB, respectively, to render the split complementation and activity dependent on their rapamycin dependent interaction. Right: Labelling kinetics of the model system were followed via a fluorescence polarization assay in the presence or absence of rapamycin (Rap). Halo-TMR was used as substrate and each experiment was performed in triplicate.
FIG. 14 Impact of different flexible linkers in the FKBP/FRB model system: Labelling kinetics of split HaloTag™ fused to FKBP and FRB using different flexible linkers were observed via a fluorescence polarization assay in the presence or absence of rapamycin. Halo-TMR was used as substrate and each experiment was performed in triplicate.
The inventors further tested the performance of the split-HaloTag system of the invention for labelling protein-protein interactions in a simple model system. They used the strong interaction of the proteins FKBP and FRB, which is conditional on the presence of the small-molecule drug rapamycin. […] Different flexible linkers (1-3 times GGS) were placed between the interacting proteins (FKBP/FRP) and the split HaloTag™ fragments to assess the effect of linker length and to find well performing linker combinations (FIG. 14). […]

The nature of test [2]: FP kinetic assay of calcium integrators (split integrator, CaProLa). Format: biochemical. Conditions: in combination with the calmodulin/M13 sensor system; versus PEP1. Here is the method: FIG. 6 M13—cpHaloΔ9mer and 9mer—CaM linker length optimization: All combinations of split integrators composed of M13—(GGS)1-3—cpHaloΔ9mer and 9mer—(GGS)1-3—CaM were tested in an FP kinetic assay in the presence of calcium or EGTA.
FIG. 8 Performance of CaProLa constructs with different M13—CaM linkers: FP kinetics of different CaProLa constructs and the split integrator under four conditions: in the presence of calcium (red), in the absence of calcium (purple), in the absence of calcium but spiked with calcium after 1 h (cyan), in the presence of calcium, followed by an EGTA spike to stop the reaction, followed by a calcium spike to restart the reaction (green). Small arrows indicate the EGTA and calcium spikes. Curves in the presence of calcium (red) were fitted to a second order reaction rate equation to determine the rate constants. All experiments were performed in triplicates. GGTGGS: SEQ ID NO 027.
FIG. 11 Performance of second generation CaProLa constructs: A fluorescence polarization kinetic assays with Halo-TMR of CaProLa 2.1-2.3 were performed under four conditions: in the presence of calcium (red), in the absence of calcium (purple), in the absence of calcium but spiked with calcium after 1 h (cyan), in the presence of calcium, followed by an EGTA spike to stop the reaction, followed by a calcium spike (green). Small arrows indicate the EGTA and calcium spikes. […]

Turning to “PEP2: 10mer Peptide 145-ARETFQAFRT-154, second partial effector sequence with extra C-terminal threonine (partial sensor sequence)”, the “effect of the extra threonine on reaction speed” value in test [1] was “does not have much effect”; in test [2], “significant increase in the reaction speed”.
